Source: patent US20220072036A1, “METHOD FOR INHIBITING CORONAVIRUS AND METHOD FOR TREATING DISEASE ASSOCIATED WITH CORONAVIRUS INFECTION” (AMAZING FORTUNE CO., LTD., priority 2020, published 2022)

Legend:
[1] = molecular target: SARS-CoV-2 papain-like protease (PLPro) (Severe acute respiratory syndrome coronavirus 2, UniProt P0DTD1); format: biochemical; conditions: SARS-CoV2 PLPro 0.9 μM, 30 min preincubation, FG6-pNA substrate, 30° C., 300 seconds; inhibitor concentrations per Table 1; mean±standard deviation
[2] = test system: CC(C)C[C@H](NC(=O)[C@H](CCCNC(=N)N)NC(=O)[C@@H](N)Cc1ccccc1)C(=O)N[C@@H](CCCCN)C(=O)NCC(=O)NCC(=O)Nc1ccc([N+](=O)[O-])cc1; assay: purified protein, by the assay type; conditions: pH 7.4; 30.0 °C

| Compound | Inhibition percentage [1] [%] | Km [2] [µM] | kcat [2] [s⁻¹] |
| --- | --- | --- | --- |
| [Mg+2] [Comparative Group 2] | 13.99 ± 0.11 | – | – |
| [Zn+2] [Comparative Group 3] | 19.83 ± 0.88 | – | – |
| SARS-CoV-2 PLpro (Severe acute respiratory syndrome coronavirus 2) | – | 2500 ± 30 | 0.85 ± 0.01 |
